Measured values reported in patent EP2902035B1, “Cell-permeable peptide inhibitors of the JNK signal transduction pathway for use in the treatment of inflammatory eye diseases” (Xigen Inflammation Ltd., priority 2010, dated 2012).

What was measured:
Assay type in all cases: in vivo, Lewis rats
[1] = Ocular biodistribution by immunohistochemistry against SEQ ID NO: 11
Method: (§1) For immunohistochemistry, eyeballs were collected and fixed for 1h at room temperature in phosphate buffered saline (PBS) containing 4% paraformaldehyde before being rinsed overnight in PBS. The next day, samples were embedded and frozen in optimal cutting-temperature (OCT) compound (Tissue-Tek®, Sakura Finetek, Zoeterwoude, Netherland) and stored at -80°C. Frozen antero-posterior sections of eyes (10 µm thick) were performed at the optic nerve level using a cryostat (Leica CM 3050S, Rueil-Malmaison, France) and mounted on super-frost slides for immunohistochemical analysis.
(§2) A second set of experiment was designed to evaluate the anti-inflammatory effect of the JNK-inhibitor (poly-)peptide of SEQ ID NO: 11 at the cellular and tissue level as well as the biodistribution of this molecule 24 hours after administration. Rats were randomized into 11 experimental groups. 6 groups of rats with uveitis: untreated uveitic rats, rats injected intravenously with NaCl or the JNK-inhibitor (poly-)peptide of SEQ ID NO: 11 and rats injected intravitreously with the vehicle, the JNK-inhibitor (poly-)peptide of SEQ ID NO: 11 or dexamethasone. The 5 additional groups without uveitis were: untreated healthy rats, rats treated by NaCl IV or the JNK-inhibitor (poly-)peptide of SEQ ID NO: 11 IV and rats injected IVT with NaCl or the JNK-inhibitor (poly-)peptide of SEQ ID NO: 11. Three eyes from separate rats were collected per group and used for immunohistochemistry.
Immunostaining of the JNK-inhibitor (poly-)peptide of SEQ ID NO: 11 was performed on healthy and uveitic eyes to study its ocular biodistribution after systemic or local administration. Briefly, sections were permeabilized as described above before being sequentially incubated with an anti- SEQ ID NO: 11 purified rabbit IgG and a secondary Alexa 594 (red)-conjugated goat anti-rabbit IgG (Invitrogen, Cergy Pontoise, France) diluted 1:100 and 1:250 in PBS respectively. Immunostaining of untreated healthy and uveitic eyes were used as negative controls. Nuclei were stained with DAPI before mounting and observation.

[2] = tested on: polymorphonuclear cells (PMN); test: Quantification of infiltrating polymorphonuclear cells on histological sections in EIU; conditions: at 24 hours, mean ± SEM
Method: as §1, §2
To characterize the cellular infiltrate, sections were double-stained with ED1 and iNOS. […] After staining nuclei with DAPI (Sigma-Aldrich, Saint-Quentin Fallavier, France), sections were mounted in PBS/Glycerol (1/1) and observed by fluorescence photomicroscopy (FXA, Microphot, Nikon, Melville, USA). […] ED1 positive cells and polymorphonuclear cells, identified by the shape of their nuclei stained with DAPI, were quantified on histological sections. […] Results were expressed as mean ± standard error of the mean (SEM).

[3] = tested on: intraocular LPS-induced Chemokine/Cytokine profiles; test: Chemokine/Cytokine Multiplex Assay on ocular fluids in EIU
Method: Aqueous humor and vitreous were collected and pooled from each enucleated eye. Ocular fluids were immediately centrifuged and the cell-free fractions were collected and frozen at -20°C before analysis by Multiplex assay. Blood samples were first clotted at room temperature for 2 hours and then at 4°C overnight. Serum was collected, centrifuged and the clear supernatant was collected and frozen at -20°C before Multiplex analysis.
In a first set of experiment, 70 rats were randomized into 14 experimental groups with 5 rats per group. Uveitis was induced in each group and rats were killed 6 hours (4 groups), 24 hours (6 groups) and 48 hours (4 groups) after LPS challenge. For each time point tested (i.e. 6h, 24h and 48h), rats treated by intravenous or intravitreous injections of vehicle (NaCl 0.9%) or the JNK-inhibitor (poly-)peptide of SEQ ID NO: 11 were compared to untreated control uveitic rats. Two additional groups, treated by intravenous injection of vehicle and intravitreal injection of dexamethasone were used at 24 hours. Clinical ocular inflammation was recorded only at 24 hours (see Scoring of Endotoxin-Induced Uveitis (EIU) section). At each time point, intraocular fluids from each eye (n=10 per group) and serum from each animal (n=5 per group) were used for Chemokine/Cytokine Multiplex Assay.
Intraocular fluids (diluted to obtain a final volume of 25 µL) and sera (25 µL of 1:5 dilution) were subjected to multiplex bead analysis. This method uses microspheres as the solid support for immunoassays 12 and allows the titration of a greater number of cytokines with increased sensitivity than occurs with ELISA.13 For each sample, seventeen analytes were quantified simultaneously using the rat Cytokine/Chemokine-17plex kit (Milliplex Map Kit, Millipore, Saint-Quentin-en-Yvelines, France) according to the manufacturer's instructions: Chemokines MCP-1/CCL2, MIP-1α/CCL3, RANTES/CCL5, IP-10/CXCL10 (IFN-inducible protein-10) and GRO/KC; proinflammatory mediators IL-1, IL-18 and TNF-; Th1/Th2/Th17 cytokines IL-2 and IFN- / IL-4, IL-5, IL-6, IL-10 and IL-13 / IL-17. The assay was performed in a 96-well filter plate and standard curves for each cytokine were generated with a Rat Cytokine Standard provided in the kit. All incubation steps were performed under medium orbital agitation and in the dark to protect the beads from light. Data acquisition and analysis were performed with the manager software version 4.1 (Bioplex; Bio-Rad) with four or five logistic parameters for standard curves. Detection thresholds for all the analytes were estimated around 1 to 10 pg/mL.

[4] = ocular fluids, IV at the time of LPS challenge, at 6 and 24 hours
[5] = ocular fluids, IV, at different time points
[6] = ocular fluids, IVT, at 24 hours
[7] = treated versus untreated eyes, any of the tested time points

Structure (SMILES): CC(C)C[C@@H](NC(=O)[C@@H](Cc1ccccc1)NC(=O)[C@H]1CCCN1C(=O)[C@@H](CCC(N)=O)NC(=O)[C@H](NC(=O)[C@H]1CCCN1C(=O)[C@@H](CCCNC(=N)N)NC(=O)[C@@H](CO)NC(=O)[C@@H](CCC(N)=O)NC(=O)[C@H](N)CC(=O)O)C(C)C)C(=O)N[C@H](CC(N)=O)C(=O)N[C@H](CC(C)C)C(=O)N[C@@H](C(=O)N[C@@H](C(=O)N1CCC[C@@H]1C(=O)N[C@H](CCCNC(=N)N)C(=O)N[C@H](CCCCN)C(=O)N1CCC[C@@H]1C(=O)N[C@H](CCCNC(=N)N)C(=O)N1CCC[C@@H]1C(=O)N1CCC[C@@H]1C(=O)N[C@H](CCCNC(=N)N)C(=O)N[C@H](CCCNC(=N)N)C(=O)N[C@H](CCCNC(=N)N)C(=O)N[C@H](CCC(N)=O)C(=O)N[C@H](CCCNC(=N)N)C(=O)N[C@H](CCCNC(=N)N)C(=O)N[C@H](CCCCN)C(=O)N[C@H](CCCCN)C(=O)N[C@H](CCCNC(=N)N)C(=O)NCC(=O)O)[C@H](C)O)[C@H](C)O [SEQ ID NO: 11]
- detection of the peptide in ocular tissues ([1]; EIU eyes, 24 hours after IV injection): not detected
- detection of the peptide in infiltrating inflammatory cells (iris, aqueous humor) ([1]; EIU eyes, 24 hours after IV injection, occasional cells): immunopositive
- subcellular localisation of the peptide ([1]; all cell types, normal eyes after IVT administration): accumulated within the cytoplasm
- immunoreactivity of the peptide in ocular tissues ([1]; normal eyes, 24 hours after systemic (IV) injection, 20 µg/kg): no signal was observed
- distribution of the peptide in ocular tissues ([1]; normal rats, 24 hours after IVT administration, 0.2 µg/injection): distributed in almost all ocular tissues
- distribution of the peptide in ocular tissues and resident cells ([1]; uveitic eyes, 24 hours after IVT injection): mostly found in ocular tissues like in healthy eyes and in resident cells
- number of polymorphonuclear cells (PMN) ([2]; IV administration (20 µg/kg)): 60 ± 6
- number of polymorphonuclear cells (PMN) ([2]; IVT injection (SEQ ID NO: 11: 0.2 µg/injection)): 40 ± 5
- MCP-1 [3, 4]: significant reduction
- MIP-1α [3, 4]: significant reduction
- RANTES [3, 4]: significant reduction
- GRO/KC ([3]; ocular fluids, IV, at 6 hours): significantly reduced
- IL-10 ([3]; ocular fluids, IV, at 6 hours, not significantly): tended to increase
- IL-6 [3, 5]: significantly reduced
- INF-γ [3, 5]: significantly reduced
- TNF-α [3, 5]: significantly reduced
- IL-2 ([3]; ocular fluids, IVT, at 6 hours): trend to a decrease
- IL-6 ([3]; ocular fluids, IVT, at 6 hours): trend to a decrease
- MCP-1 ([3]; ocular fluids, IVT, at 6 hours): trend to a decrease
- TNF-α ([3]; ocular fluids, IVT, at 6 hours): trend to a decrease
- IL-2 [3, 6]: marked decrease
- IL-13 [3, 6]: increase
- chemokine/ cytokine profiles ([3]; ocular fluids, injected into the vitreous at the time of LPS challenge, versus vehicle): not strikingly different
- IL-1β [3, 7]: did not differ
- IL-4 [3, 7]: did not differ
- IL-18 [3, 7]: did not differ
